In ChEMBL document CHEMBL1201862, “PubChem BioAssay data set” (2004):
The source made the active and inactive calls.

Legend:
BJ [1] = assay: cells; type: functional, cell-based; settings: Homo sapiens
[2] = cytotoxicity in HEK-293T cells, dose response, cytotoxicity control for TCR NF-kB inhibitor project, luminescence, T-cell screen hits (AID 489026); type: functional, cell-based;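 note: cells exposed to compound about 14 hours before the viability readout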
[3] = molecular target: RNA-editing ligase 1, mitochondrial (Trypanosoma brucei brucei, UniProt P86926); assay: TbREL1 ligase inhibitors, dose response, biochemical, fluorescence, Trypanosoma brucei (AID 1117295); type: functional
BJ [4] = assay: cytotoxicity toward BJ-TERT-LT-ST fibroblasts, dose response, cell-based, RAS-independent, luminescence (AID 1935); type: functional; settings: Homo sapiens;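 note: BJ fibroblasts immortalized with TERT plus LT and ST oncogenes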
BJ [5] = assay: cytotoxicity toward BJ-TERT fibroblasts, dose response, cell-based, RAS-independent, luminescence (AID 1933); type: functional; settings: Homo sapiens
[6] = cytotoxicity toward DRD oncogenic fibroblasts, dose response, cell-based, non-viral oncogenic, luminescence (AID 1934); type: functional; settings: Homo sapiens
[7] = molecular target: E3 ubiquitin-protein ligase Mdm2 (Homo sapiens, UniProt Q00987); assay: enhancers of MDM2-luciferase reporter signal, concentration-effect titration, project on inhibitors of MDM2 ubiquitin ligase, cellular assay, luminescent readout, 384-well plate format (AID 1394); type: functional;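 note: MDM2 E3 inhibitors raise luminescence so EC50 is for signal enhancement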
[8] = P. falciparum Dd2 blood-stage growth inhibition, dose response, SYBR Green fluorescence, erythrocytes, dry powder, set 2 (AID 1159574); type: functional, cell-based
[9] = A549 cell cytotoxicity, dose response, cytotoxicity control, CellTiter-Glo luminescence, dry powder, set 3 (AID 743146); type: functional, cell-based
[10] = HepG2 cell cytotoxicity, dose response, cytotoxicity control, ATP luminescence, dry powder, Set4 (AID 743143); type: functional, cell-based
[11] = molecular target: Mitogen-activated protein kinase 10 (Homo sapiens, UniProt P53779); assay: Dose response biochemical screening assay for inhibitors of c-Jun N-Terminal Kinase 3 (JNK3). [Related pubchem assays: 746 ]
[12] = molecular target: NAD-dependent protein deacylase sirtuin-5, mitochondrial (Homo sapiens, UniProt Q9NXA8); assay: SIRT5 deacylase inhibitors, dose response, biochemical, fluorescence imaging, cherry-pick, set 6 (AID 720597)
[13] = molecular target: Bifunctional protein GlmU (Mycobacterium tuberculosis, UniProt P9WMN3); assay: Inhibitors of Mycobacterial Glucosamine-1-phosphate acetyl transferase (GlmU). Secondary screen.; set-up: species or system Mycobacterium tuberculosis H37Rv
[14] = molecular target: Dual specificity protein phosphatase 3 (Homo sapiens, UniProt P51452); assay: VHR phosphatase inhibition, dose response, selectivity assay for STEP inhibitor project, biochemical (AID 602374); type: functional; settings: read-out: IC50_Mean
[15] = molecular target: T1, Tyrosine-protein phosphatase non-receptor type 22 (Homo sapiens, UniProt Q9Y2R2); assay: PTPN22 phosphatase inhibition, dose response, selectivity assay for STEP inhibitor project, biochemical (AID 624241); type: functional
T1 sequence (Q9Y2R2 whole entry): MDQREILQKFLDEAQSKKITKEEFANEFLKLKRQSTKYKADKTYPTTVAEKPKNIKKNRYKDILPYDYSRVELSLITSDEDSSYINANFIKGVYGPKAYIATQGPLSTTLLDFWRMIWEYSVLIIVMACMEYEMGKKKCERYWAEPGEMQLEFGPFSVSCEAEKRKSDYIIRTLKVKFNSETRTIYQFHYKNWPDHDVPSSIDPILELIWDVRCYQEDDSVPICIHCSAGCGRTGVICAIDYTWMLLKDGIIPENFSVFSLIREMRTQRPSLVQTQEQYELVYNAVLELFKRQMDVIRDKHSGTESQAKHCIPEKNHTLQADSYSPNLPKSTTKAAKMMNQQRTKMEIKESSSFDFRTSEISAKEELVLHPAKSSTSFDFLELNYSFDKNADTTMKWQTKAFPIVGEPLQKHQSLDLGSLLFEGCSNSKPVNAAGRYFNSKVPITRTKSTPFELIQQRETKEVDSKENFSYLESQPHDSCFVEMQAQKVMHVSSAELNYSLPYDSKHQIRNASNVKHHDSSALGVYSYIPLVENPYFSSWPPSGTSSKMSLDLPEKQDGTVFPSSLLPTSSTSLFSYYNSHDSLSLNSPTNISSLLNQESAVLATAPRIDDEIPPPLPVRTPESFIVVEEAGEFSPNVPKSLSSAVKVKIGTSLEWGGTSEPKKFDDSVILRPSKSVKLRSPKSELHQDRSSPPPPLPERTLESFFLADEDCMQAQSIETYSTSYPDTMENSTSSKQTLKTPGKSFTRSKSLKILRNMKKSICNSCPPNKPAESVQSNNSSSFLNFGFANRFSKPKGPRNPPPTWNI

[16] = molecular target: T2, Carboxy-terminal domain RNA polymerase II polypeptide A small phosphatase 1 (Homo sapiens, UniProt Q9GZU7); assay: inhibitors of CTDSP1, concentration-response testing, biochemical assay, absorbance-based, actives from ultra-high-throughput screening (AID 540297); type: functional
T2 sequence (Q9GZU7 whole entry): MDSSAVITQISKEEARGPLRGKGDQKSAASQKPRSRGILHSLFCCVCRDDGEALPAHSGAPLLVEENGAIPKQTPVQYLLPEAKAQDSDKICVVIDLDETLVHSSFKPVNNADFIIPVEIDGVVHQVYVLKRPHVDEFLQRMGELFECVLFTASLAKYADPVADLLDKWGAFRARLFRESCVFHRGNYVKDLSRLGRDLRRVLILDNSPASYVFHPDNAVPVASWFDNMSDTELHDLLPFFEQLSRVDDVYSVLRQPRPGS

Protein Tat = Protein Tat (Human immunodeficiency virus type 1 group M subtype B (isolate HXB2)(HIV-1), UniProt P04608); type: functional;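 note: tat binding to TAR RNA read out by fluorescence polarization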
[17] = molecular target: Tyrosine-protein phosphatase non-receptor type 5 (Homo sapiens, UniProt P54829); assay: STEP phosphatase inhibitors, confirmation, biochemical, fluorescence intensity, uHTS hits (AID 602372); type: functional; settings: read-out: IC50_Mean
[18] = molecular target: Tyrosine-protein phosphatase non-receptor type 11 (Homo sapiens, UniProt Q06124); assay: SHP2 phosphatase inhibition, dose response, selectivity assay for STEP inhibitor project, biochemical (AID 602367); type: functional; settings: read-out: IC50_Mean
Tyrosine-protein phosphatase non-receptor type 11, sequence (Q06124 whole entry): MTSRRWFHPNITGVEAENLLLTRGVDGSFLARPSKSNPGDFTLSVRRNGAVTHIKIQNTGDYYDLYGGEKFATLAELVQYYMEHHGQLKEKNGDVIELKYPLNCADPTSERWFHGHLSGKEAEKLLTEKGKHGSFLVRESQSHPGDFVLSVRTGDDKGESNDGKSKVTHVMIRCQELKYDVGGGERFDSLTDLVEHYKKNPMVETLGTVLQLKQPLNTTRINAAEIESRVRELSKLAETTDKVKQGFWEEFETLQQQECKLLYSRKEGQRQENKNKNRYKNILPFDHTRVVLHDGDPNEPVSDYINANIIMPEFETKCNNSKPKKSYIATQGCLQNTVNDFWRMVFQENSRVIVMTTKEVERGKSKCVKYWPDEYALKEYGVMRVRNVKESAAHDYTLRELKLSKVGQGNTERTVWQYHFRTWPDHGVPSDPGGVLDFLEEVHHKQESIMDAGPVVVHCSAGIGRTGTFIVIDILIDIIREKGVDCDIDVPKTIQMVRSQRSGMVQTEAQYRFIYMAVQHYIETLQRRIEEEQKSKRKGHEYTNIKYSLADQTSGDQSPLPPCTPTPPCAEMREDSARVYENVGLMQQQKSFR

NAD-dependent protein deacylase sirtuin-5, mitochondrial, sequence (Q9NXA8 whole entry): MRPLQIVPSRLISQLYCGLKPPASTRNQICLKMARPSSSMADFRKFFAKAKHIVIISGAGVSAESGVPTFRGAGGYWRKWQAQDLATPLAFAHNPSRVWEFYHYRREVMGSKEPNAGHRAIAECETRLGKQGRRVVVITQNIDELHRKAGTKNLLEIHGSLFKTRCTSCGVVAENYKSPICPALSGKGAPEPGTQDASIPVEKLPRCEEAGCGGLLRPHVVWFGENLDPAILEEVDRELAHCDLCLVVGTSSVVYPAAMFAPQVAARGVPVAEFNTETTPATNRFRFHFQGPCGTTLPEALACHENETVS
E3 ubiquitin-protein ligase Mdm2, sequence (Q00987 whole entry): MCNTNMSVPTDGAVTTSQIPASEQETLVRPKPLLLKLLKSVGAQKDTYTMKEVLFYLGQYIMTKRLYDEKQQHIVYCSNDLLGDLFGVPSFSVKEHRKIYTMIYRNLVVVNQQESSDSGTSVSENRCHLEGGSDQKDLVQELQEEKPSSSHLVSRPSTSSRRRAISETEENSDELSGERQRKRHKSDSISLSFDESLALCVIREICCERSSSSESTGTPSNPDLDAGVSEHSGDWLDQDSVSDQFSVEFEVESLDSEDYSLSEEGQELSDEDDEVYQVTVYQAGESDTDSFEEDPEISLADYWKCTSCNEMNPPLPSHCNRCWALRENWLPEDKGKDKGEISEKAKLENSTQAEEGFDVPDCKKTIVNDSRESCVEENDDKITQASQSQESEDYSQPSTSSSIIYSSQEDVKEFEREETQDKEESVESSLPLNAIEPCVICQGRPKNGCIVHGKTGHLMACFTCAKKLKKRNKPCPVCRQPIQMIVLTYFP
Mitogen-activated protein kinase 10, sequence (P53779 whole entry): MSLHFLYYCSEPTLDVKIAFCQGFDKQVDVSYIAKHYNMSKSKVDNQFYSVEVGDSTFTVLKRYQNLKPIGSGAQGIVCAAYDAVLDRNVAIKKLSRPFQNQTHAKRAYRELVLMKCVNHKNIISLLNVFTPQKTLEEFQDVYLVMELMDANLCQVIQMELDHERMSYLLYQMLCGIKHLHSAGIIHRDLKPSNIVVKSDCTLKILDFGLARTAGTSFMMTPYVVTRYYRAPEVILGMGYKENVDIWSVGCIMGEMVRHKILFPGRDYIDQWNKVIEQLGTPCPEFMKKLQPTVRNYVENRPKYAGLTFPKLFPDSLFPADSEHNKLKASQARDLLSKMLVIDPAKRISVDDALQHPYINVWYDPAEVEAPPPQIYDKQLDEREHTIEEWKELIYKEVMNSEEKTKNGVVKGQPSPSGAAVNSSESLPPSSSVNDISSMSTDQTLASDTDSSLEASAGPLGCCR
Protein Tat, sequence (P04608 whole entry): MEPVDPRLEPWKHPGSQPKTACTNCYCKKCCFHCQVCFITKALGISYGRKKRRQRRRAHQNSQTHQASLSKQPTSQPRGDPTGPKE
Dual specificity protein phosphatase 3, sequence (P51452 whole entry): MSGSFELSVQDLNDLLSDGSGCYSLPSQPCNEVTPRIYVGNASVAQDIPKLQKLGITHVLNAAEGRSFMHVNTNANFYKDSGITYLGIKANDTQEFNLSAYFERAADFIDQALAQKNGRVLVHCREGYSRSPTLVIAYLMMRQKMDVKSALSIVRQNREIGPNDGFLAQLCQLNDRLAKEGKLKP
RNA-editing ligase 1, mitochondrial, sequence (P86926 whole entry): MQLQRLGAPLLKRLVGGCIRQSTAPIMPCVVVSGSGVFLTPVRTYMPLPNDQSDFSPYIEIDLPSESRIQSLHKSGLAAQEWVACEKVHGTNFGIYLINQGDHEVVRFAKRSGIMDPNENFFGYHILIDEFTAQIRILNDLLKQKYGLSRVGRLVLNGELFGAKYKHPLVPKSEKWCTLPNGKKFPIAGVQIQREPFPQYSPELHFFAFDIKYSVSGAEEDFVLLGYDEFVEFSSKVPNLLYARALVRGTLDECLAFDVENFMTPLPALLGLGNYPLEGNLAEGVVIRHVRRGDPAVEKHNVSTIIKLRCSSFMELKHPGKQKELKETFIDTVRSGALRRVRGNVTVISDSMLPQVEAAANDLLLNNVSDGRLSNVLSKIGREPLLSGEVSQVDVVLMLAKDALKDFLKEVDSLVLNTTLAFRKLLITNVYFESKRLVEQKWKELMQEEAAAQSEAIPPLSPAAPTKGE
Tyrosine-protein phosphatase non-receptor type 5, sequence (P54829 whole entry): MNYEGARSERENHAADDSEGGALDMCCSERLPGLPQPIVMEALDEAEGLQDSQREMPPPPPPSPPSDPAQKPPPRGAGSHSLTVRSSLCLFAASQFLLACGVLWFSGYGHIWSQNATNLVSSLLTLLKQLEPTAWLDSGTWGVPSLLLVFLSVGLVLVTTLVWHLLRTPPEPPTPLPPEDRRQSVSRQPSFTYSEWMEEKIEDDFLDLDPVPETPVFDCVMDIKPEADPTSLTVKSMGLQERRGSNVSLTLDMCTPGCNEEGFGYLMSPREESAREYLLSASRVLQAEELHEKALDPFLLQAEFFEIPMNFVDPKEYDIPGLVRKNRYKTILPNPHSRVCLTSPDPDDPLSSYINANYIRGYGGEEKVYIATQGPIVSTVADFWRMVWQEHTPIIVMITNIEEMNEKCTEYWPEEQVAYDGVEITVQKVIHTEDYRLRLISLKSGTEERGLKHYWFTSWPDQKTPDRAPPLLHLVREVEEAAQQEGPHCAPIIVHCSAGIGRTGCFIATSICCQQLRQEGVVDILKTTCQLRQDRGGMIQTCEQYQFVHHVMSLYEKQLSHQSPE
Bifunctional protein GlmU, sequence (P9WMN3 whole entry): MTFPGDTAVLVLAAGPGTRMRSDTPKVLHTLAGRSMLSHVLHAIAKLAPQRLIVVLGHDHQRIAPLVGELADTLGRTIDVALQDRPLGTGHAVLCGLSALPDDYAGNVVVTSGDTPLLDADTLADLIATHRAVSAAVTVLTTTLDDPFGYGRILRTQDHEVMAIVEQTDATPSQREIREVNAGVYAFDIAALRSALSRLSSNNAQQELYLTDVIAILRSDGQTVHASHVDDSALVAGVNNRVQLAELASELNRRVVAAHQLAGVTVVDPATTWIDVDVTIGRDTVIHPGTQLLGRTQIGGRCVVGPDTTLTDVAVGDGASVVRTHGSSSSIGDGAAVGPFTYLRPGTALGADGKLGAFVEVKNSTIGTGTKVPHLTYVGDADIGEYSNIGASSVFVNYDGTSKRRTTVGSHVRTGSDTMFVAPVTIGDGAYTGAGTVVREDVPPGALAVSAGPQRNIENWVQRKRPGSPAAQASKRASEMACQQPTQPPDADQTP

For CC1(C)CC(N2CCN(C(c3ccccc3)c3ccccc3)CC2)=CC(=[N+]2CCCCC2)C1, which EC50 (BJ [1]) is on record?
Its EC50 is 3.77 µM (active).

And the IC50 [2]?
Its IC50 is > 80 µM (inactive).

What about the IC50 [3] of the same compound?
The IC50 was > 96.6 µM (inactive).

And the EC50 (BJ [4])?
The EC50 was 3.51 µM (inconclusive).

And the EC50 (BJ [5])?
Its EC50 is 2.36 µM (active).

What about the EC50 [6] of the same compound?
Its EC50 is 3.82 µM (active).

Which EC50 [7] does the source give for COc1ccc(-c2nsc(SCC(=O)Nc3ccc4c(c3)OCO4)n2)cc1 here?
The EC50 was 0.19 µM (not active).

With O=C(c1ccccc1F)N1CC(=O)N2[C@H](C1)[C@H](c1ccc(-c3cccnc3)cc1)[C@@H]2CO as the compound, how does the AC50 [8] read?
Its AC50 is 19.4 µM (active).

Which results are given for COc1cc(C(=O)NCCC(=O)NC2CCCc3ccccc32)cc(OC)c1OC (centres undefined)?
AC50 [9]: 26.7 µM (active); AC50 [10]: 21.7 µM (active)

With COc1cccc(C2=NOC(C(=O)Nc3cc(OC)c(OC)c(OC)c3)C2)c1 (centres undefined) as the compound, how does the IC50 [11] read?
The IC50 was 2.02 µM (active).

With Cc1noc(C)c1NC(=O)Nc1ccc2c(c1)C(=O)N([C@H](C)CO)C[C@H](C)[C@@H](CN(C)Cc1ccc(C(F)(F)F)cc1)OCCCC[C@@H](C)O2 as the compound, how does the AC50 [12] read?
Its AC50 is > 30 µM (inactive).

For Cc1c(C)n(C(=O)CSc2nc3ccccc3[nH]2)c2ccccc12, which IC50 [13] is on record?
The IC50 was 38.2 µM (active).

What about the IC50 [14] of the same compound?
The IC50 was 1.81 µM (active).

And the IC50 [15]?
The IC50 was 8.33 µM (active).

And the IC50 [16]?
The IC50 was 3.37 µM (active).

What about the IC50 (Protein Tat) of the same compound?
The IC50 was > 100 µM (active).

What about the IC50 [17] of the same compound?
The IC50 was 9.91 µM (active).

And the IC50 [18]?
Its IC50 is 0.603 µM (active).
